In brackets after ≈: the same amount, converted by molar mass. Read-outs that look alike come from different tables or passages of the source.
How the values were obtained:
Candida albicans = test: Antifungal MIC, Candida albicans; type: cell-based
Description: (§1) A 10 mL tube containing 4 mL of Sabourauds dextrose broth was inoculated with 1 colony of Candida albicans picked from a plate of pure culture. The strain was ordered from the American Type Culture Collection (ATCC). The organism was grown for 4 hours at 30° C. while shaking at 150 RPM. While the organism was growing, samples of hydroxy-itraconazoles were solubilized to a concentration of 10 mg/mL in DMSO. Each sample was then diluted 1:10 to make 1 mg/mL samples or 1000 μg/mL. These samples were then diluted by serial 2-fold dilutions to produce samples now containing 1000, 500, 250, 125, 62.5, 31.25, 15.6 μg/mL. […] At 4 hours of growth time the Candida albicans was diluted to a 0.5 McFarland standard representing about 10^5 -10^6 cells/mL and 1 μL of this inoculum placed into each test well of the microtiter dish. The dish was then covered and incubated at 30° C. for 16 hours.

S. cerevisae = test: Antifungal MIC, S. cerevisae; type: cell-based, Saccharomyces cerevisiae; conditions: S. cerevisae (Table 3); for MIC: Saccharomyces cerevisiae
Description: [The source words this procedure for another organism and reports this organism under the same test.] as §1

A. fumigatis = test: Antifungal MIC, A. fumigatis; type: cell-based; conditions: A. fumigatis (Table 3)
Description: [The source words this procedure for another organism and reports this organism under the same test.] as §1

[1] = Water solubility of hydroxyitraconazole isomers and itraconazole; type: physicochemical; conditions: for Area: λmax = 260 nm, LOD 5000 μV*sec
Description: The isomers of cis hydroxyitraconazole were tested for water solubility against a […] standard solution of hydroxyitraconazole. […] The values for 3+4 and 11+12 are barely above the LOD, giving accuracies of ±10%. In every case, solubilities were in the 10^1 to 10^2 ng/ml range.

Sacchromyces cerevisae = test: Kirby-Bauer Testing, Saccharomyces cerevisiae; type: cell-based; conditions: 10 μl of 10 mg/mL per disk, 30° C., 16 hours; for zone of inhibition at 10000 µg/mL: Saccharomyces cerevisiae
Description: The hydroxyitraconazole isomers were tested for biological activity according three different assays.
Actively growing cultures of Candida albicans, Cryptococcus neoformens and Saccharomyces cerevisiae were prepared as described above. The cultures were diluted to a 0.5 McFarland standard and swabbed onto a 150 mm Sabouraud Dextrose agar plates. Paper disks (7 mm) were placed onto the agar plates using a disk dispenser. […] The plates were then incubated at 30° C. for 16 hours. Zones of inhibition were then measured in mm.

Cr. neoformens = test: Antifungal MIC, Cr. neoformens; type: cell-based, Cryptococcus neoformens; conditions: Cr. neoformens (Table 3); for MIC: Cryptococcus
Description: [The source words this procedure for another organism and reports this organism under the same test.] as §1

cytochrome P450 3A4 [2] = biological target: T1, cytochrome P450 3A4 (Homo sapiens, UniProt P08684); test: Inhibition of cytochrome P450 3A4 (testosterone 6β-hydroxylase activity)
T1 sequence (P08684 whole entry): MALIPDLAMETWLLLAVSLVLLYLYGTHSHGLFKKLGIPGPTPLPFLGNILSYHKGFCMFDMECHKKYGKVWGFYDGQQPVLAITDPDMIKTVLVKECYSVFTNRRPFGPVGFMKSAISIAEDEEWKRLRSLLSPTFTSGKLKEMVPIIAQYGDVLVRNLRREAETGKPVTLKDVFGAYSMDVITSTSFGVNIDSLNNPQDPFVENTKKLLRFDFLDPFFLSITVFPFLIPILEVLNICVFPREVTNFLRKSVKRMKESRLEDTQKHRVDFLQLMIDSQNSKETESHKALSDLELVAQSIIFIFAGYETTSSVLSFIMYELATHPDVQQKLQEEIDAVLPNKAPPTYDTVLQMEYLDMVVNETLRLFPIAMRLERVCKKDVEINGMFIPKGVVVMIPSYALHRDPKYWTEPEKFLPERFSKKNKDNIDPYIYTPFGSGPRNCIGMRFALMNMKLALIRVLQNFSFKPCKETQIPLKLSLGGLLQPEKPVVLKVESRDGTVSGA
Description: (§2) The IC50 values were determined by the appearance of 6β-hydroxytestosterone after incubation with testosterone. […] Of greater clinical significance is the ratio of the IC50 for 3A4 to the MIC for C. albicans 44203.

delayed rectifier (IK) = conditions: cited from earlier work; for Effect on cardiac repolarization: Torsades de Pointes side effect
[3] = Water solubility of hydroxyitraconazole phosphate isomers (NMG salts); type: physicochemical; conditions: Table 8
Text: The water solubility of the NMG salts of the phosphate esters of isomers 1, 2 and 3+4 were investigated and compared to the corresponding hydroxyitraconazole isomers 1, 2 and 3+4. The phosphate esters were as much as 10^7 times more water soluble than the corresponding hydroxyitraconazole isomer.

cytochrome P450 3A4 [4] = biological target: T1, cytochrome P450 3A4
Description: as §2

[5] = Candida albicans, C. albicans strain 28516 (Table 3), read-out: Antifungal MIC
[6] = Candida albicans, C. albicans strain 28815 (Table 3), read-out: Antifungal MIC
[7] = Candida albicans, C. albicans strain 44203 (Table 3), read-out: Antifungal MIC
[8] = Candida albicans, C. albicans strain 44373 (Table 3), read-out: Antifungal MIC
[9] = Candida albicans, Candida albicans strain 44203 (Table 4), read-out: MIC
[10] = LOD: 5000 μV*sec, order-of-magnitude accuracy below LOD, 3+4 and 11+12 ±10%

## CC[C@H](C)n1ncn(-c2ccc(N3CCN(c4ccc(OC[C@H]5CO[C@](Cn6cncn6)(c6ccc(Cl)cc6Cl)O5)cc4)CC3)cc2)c1=O [Compound 5, reference compound]
Candida albicans; Candida albicans
  MIC: 0.312 µg/mL (≈ 0.443 µM)

## CC[C@@H](C)n1ncn(-c2ccc(N3CCN(c4ccc(OC[C@H]5CO[C@](Cn6cncn6)(c6ccc(Cl)cc6Cl)O5)cc4)CC3)cc2)c1=O [Compound 6, reference compound]
Candida albicans; Candida albicans
  MIC: 0.312 µg/mL (≈ 0.443 µM)

## CC[C@H](C)n1ncn(-c2ccc(N3CCN(c4ccc(OC[C@@H]5CO[C@@](Cn6cncn6)(c6ccc(Cl)cc6Cl)O5)cc4)CC3)cc2)c1=O [Compound 7, reference compound]
Candida albicans; Candida albicans
  MIC: < 0.078 µg/mL

## CC[C@@H](C)n1ncn(-c2ccc(N3CCN(c4ccc(OC[C@@H]5CO[C@@](Cn6cncn6)(c6ccc(Cl)cc6Cl)O5)cc4)CC3)cc2)c1=O [Compound 8, reference compound]
Candida albicans; Candida albicans
  MIC: < 0.078 µg/mL

## C[C@@H](O)[C@H](C)n1ncn(-c2ccc(N3CCN(c4ccc(OC[C@@H]5CO[C@@](Cn6cncn6)(c6ccc(Cl)cc6Cl)O5)cc4)CC3)cc2)c1=O [Compound 9]
S. cerevisae
  MIC: 0.195 µg/mL (≈ 0.27 µM)
A. fumigatis
  MIC: 0.137 µg/mL (≈ 0.19 µM)
[1]; water, LOD: 5000 μV*sec, order-of-magnitude accuracy below LOD, 3+4 and 11+12 ±10%
  solubility: 0.045 µg/mL (≈ 0.0624 µM)
Candida albicans; [5]
  MIC: 0.25 µg/mL (≈ 0.346 µM)
Candida albicans; [6]
  MIC: 0.125 µg/mL (≈ 0.173 µM)
Candida albicans; [7]
  MIC: 0.05 µg/mL (≈ 0.0693 µM)
Candida albicans; [8]
  MIC: 0.25 µg/mL (≈ 0.346 µM)
Candida albicans; [9]
  MIC: 0.05 µg/mL (≈ 0.0693 µM)
Sacchromyces cerevisae
  zone of inhibition at 10000 µg/mL: 20 mm
Cr. neoformens
  MIC: 0.78 µg/mL (≈ 1.08 µM)
Cytochrome P450 3A4 [2]
  selectivity ratio: 7.4

## C[C@H](O)[C@@H](C)n1ncn(-c2ccc(N3CCN(c4ccc(OC[C@@H]5CO[C@@](Cn6cncn6)(c6ccc(Cl)cc6Cl)O5)cc4)CC3)cc2)c1=O [Compound 10]
S. cerevisae
  MIC: 0.195 µg/mL (≈ 0.27 µM)
A. fumigatis
  MIC: 0.137 µg/mL (≈ 0.19 µM)
[1]; [10]
  Water solubility: not detected
[1]
  Area: not even detected
Candida albicans; [5]
  MIC: 0.25 µg/mL (≈ 0.346 µM)
Candida albicans; [6]
  MIC: 0.125 µg/mL (≈ 0.173 µM)
Candida albicans; [7]
  MIC: 0.025 µg/mL (≈ 0.0346 µM)
Candida albicans; [8]
  MIC: 0.25 µg/mL (≈ 0.346 µM)
Candida albicans; [9]
  MIC: 0.025 µg/mL (≈ 0.0346 µM)
Sacchromyces cerevisae
  zone of inhibition at 10000 µg/mL: 22 mm
Cr. neoformens
  MIC: 0.78 µg/mL (≈ 1.08 µM)
Cytochrome P450 3A4 [2]
  selectivity ratio: 19

## CCN(CC)CCNC(=O)c1ccc(NC(C)=O)cc1 [acetyl-procainamide]
Delayed rectifier (IK)
  Effect on cardiac repolarization: prolongation of cardiac repolarization
  Block of delayed rectifier (IK): ability to block a cellular potassium channel called the delayed rectifier (IK)

## C=C[C@H]1C[N@@]2CC[C@H]1C[C@@H]2[C@@H](O)c1ccnc2ccc(OC)cc12 [quinidine]
Delayed rectifier (IK)
  Effect on cardiac repolarization: prolongation of cardiac repolarization
  Block of delayed rectifier (IK): ability to block a cellular potassium channel called the delayed rectifier (IK)

## CC(C)NCC(O)c1ccc(NS(C)(=O)=O)cc1 (centres unmarked) [sotalol]
Delayed rectifier (IK)
  Effect on cardiac repolarization: prolongation of cardiac repolarization
  Block of delayed rectifier (IK): ability to block a cellular potassium channel called the delayed rectifier (IK)

## (2S,4R)-4-[4-[4-[4-[[2,4-dichlorophenyl)-2-(1H-1,2,4-triazol-1-ylmethyl)-1,3-dioxolan-4-yl]methoxy]phenyl]-1-piperazinyl]-2,4-dihydro-2-[(1S,2R)-(2-hydroxy-1-methylpropyl)]-3H-1,2,4,-triazol-3-one [Compound 2]
S. cerevisae
  Antifungal MIC: 0.39 µg/mL
A. fumigatis
  Antifungal MIC: 0.137 µg/mL
[1]; [10]
  Water solubility: not detected
[1]
  Area: not even detected
Candida albicans; C. albicans strain 10231 (Table 3)
  Antifungal MIC: 0.5 µg/mL
Candida albicans; C. albicans strain 28516 (Table 3)
  Antifungal MIC: 0.25 µg/mL
Candida albicans; C. albicans strain 28815 (Table 3)
  Antifungal MIC: 0.5 µg/mL
Candida albicans; C. albicans strain 44203 (Table 3)
  Antifungal MIC: 0.05 µg/mL
Candida albicans; C. albicans strain 44373 (Table 3)
  Antifungal MIC: 0.25 µg/mL
Candida albicans; C. albicans strain 62342 (Table 3)
  Antifungal MIC: 1.0 µg/mL
Candida albicans; Candida albicans strain 44203 (Table 4)
  MIC: 0.05 µg/mL
Sacchromyces cerevisae
  Kirby-Bauer zone of inhibition: 20 mm
[3]
  Water solubility: < 0.01 µg/mL
Cr. neoformens
  Antifungal MIC: 0.39 µg/mL
Cytochrome P450 3A4 [4]
  IC50 /MIC Ratio: 70
Cytochrome P450 3A4 [2]; testosterone 6β-hydroxylase activity
  Inhibition of P450 3A4 in words: notably less inhibition of the P450 3A4 enzyme than the 2S,4R isomers
Cytochrome P450 3A4 [2]; therapeutic index, 3A4 vs C. albicans 44203
  IC50/MIC ratio in words: excellent results

From patent US6147077A, “2R,4S-hydroxyitraconazole isomers” (priority 1999, dated 2000)
